Data on 34 compounds can be found in patent publication US12534450B2, “Methods and compositions for targeting PD-L1” (Aligos Therapeutics, Inc., priority 2021, dated 2026).

Assay [1] concerns PD-1/PD-L1 interaction. The assay is described as follows: PD-1/PD-L1 NFAT Reporter Assay (co-culture of Jurkat T cells overexpressing PD-1 and PD-L1 expressing CHO cells). In kind it is cell-based. The note with it: co-culture 6 hrs at 37° C., NFAT-mediated luciferase activity. The gist of the method:
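Compounds added to CHO cells expressing surface anti-CD3 and PD-L1, then Jurkat cells with PD-1 and NFAT-driven luciferase seeded on top; co-culture 6 hrs at 37° C. Luminescence read after ONE-Glo addition, EC50 from dose-response fit.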

The target in assay [2] is PD-1/PD-L1 PPI (Homo sapiens, UniProt Q9NZQ7). The assay is described as follows: PDL1/PD1 Binding Assay. The note with it: PDL1-6×His 0.3 nM, PD1-Fc-Avi-Biotin 2.5 nM, Acceptor/Donor beads, Envision reader. The gist of the method:
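AlphaScreen competition: compound (1% DMSO) preincubated 30 min RT with PDL1-6×His (0.3 nM), then PD1-Fc-Avi-Biotin (2.5 nM) 30 min; anti-His acceptor and streptavidin donor beads (20 ug/mL each) added, 1 h each, dark up to overnight. Buffer 25 mM Hepes pH 7.4, 150 mM NaCl. IC50 by four-parameter fit.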

Each structure is given as a SMILES string.

Sequence of PD-1/PD-L1 PPI (Q9NZQ7 19-238 limits assumed): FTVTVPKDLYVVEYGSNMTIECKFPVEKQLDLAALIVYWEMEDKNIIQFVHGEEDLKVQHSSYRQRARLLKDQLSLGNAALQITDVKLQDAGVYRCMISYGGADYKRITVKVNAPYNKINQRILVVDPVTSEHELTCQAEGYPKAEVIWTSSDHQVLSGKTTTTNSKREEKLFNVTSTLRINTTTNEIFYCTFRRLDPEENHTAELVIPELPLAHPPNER

Take `COc1nc(-c2cc(F)cc(-c3cc(F)cc(NC(=O)c4cn(C)c(=O)n(C)c4=O)c3C)c2Cl)cc2c1[C@@H](NC[C@@H]1CCC(=O)N1)CC2` [Compound A-64]: the EC50 in assay [1] (Homo sapiens, Jurkat, 6 h) was ≤ 10 nM. Besides, the IC50 in assay [2] is ≤ 10 nM.
In the case of `COc1nc(-c2cccc(-c3cc(F)cc(NC(=O)c4cn(C)c(=O)n(C)c4=O)c3Cl)c2Cl)cc2c1[C@@H](NC[C@@H]1CCC(=O)N1)CC2` [Compound A-65], the EC50 in assay [1] (Homo sapiens, Jurkat, 6 h) was ≤ 10 nM. Also, in assay [2], the IC50 is ≤ 10 nM.
`COc1nc(-c2cc(F)cc(-c3cc(F)cc(NC(=O)c4cn(C)c(=O)n(C)c4=O)c3Cl)c2Cl)cc2c1[C@@H](NC[C@@H]1CCC(=O)N1)CC2` [Compound A-66] gave an EC50 in assay [1] (Homo sapiens, Jurkat, 6 h) of 10 to 100 nM. The IC50 in assay [2] is ≤ 10 nM.
The corresponding values for `COc1nc(-c2ccc(F)c(-c3cccc(NC(=O)c4cn(C)c(=O)n(C)c4=O)c3C)c2F)cc2c1[C@@H](NC[C@@H]1CCC(=O)N1)CC2` [Compound A-67] are ≤ 10 nM and ≤ 10 nM.
In assay [1], `COc1nc(-c2ccc(F)c(-c3cccc(NC(=O)c4cn(C)c(=O)n(C)c4=O)c3C)c2F)cc2c1[C@@H](NC[C@@H]1CCC(=O)N1)CC2` [Compound A-68] came in with an EC50 of 10 to 100 nM. The 50% inhibitory concentration (IC50) in assay [2] is ≤ 10 nM.
For the compound `COc1nc(-c2cc(F)cc(-c3cccc(NC(=O)c4cn(C)c(=O)n(C)c4=O)c3C)c2Cl)cc2c1[C@@H](NC[C@@H]1CCC(=O)N1)CC2` [Compound A-69], in assay [1] (Homo sapiens, Jurkat, 6 h), the concentration giving a half-maximal response (EC50) was ≤ 10 nM. The IC50 in assay [2] was ≤ 10 nM.
For `COc1nc(-c2c(F)ccc(-c3cccc(NC(=O)c4cn(C)c(=O)n(C)c4=O)c3C)c2F)cc2c1[C@@H](NC[C@@H]1CCC(=O)N1)CC2` [Compound A-70], the EC50 in assay [1] (Homo sapiens, Jurkat, 6 h) was in the range of 10 to 100 nM. Further, the IC50 in assay [2] was ≤ 10 nM.
For `COc1nc(-c2cccc(-c3cccc(NC(=O)c4cn(C)c(=O)n(C)c4=O)c3Cl)c2Cl)cc2c1C(N1CCN3C(=O)CC[C@H]3C1)CC2` (some centres unmarked) [Compound A-117] the same measures were 10 to 100 nM and ≤ 10 nM.
For `COc1nc(-c2cccc(-c3cccc(NC(=O)c4cn(C)c(=O)n(C)c4=O)c3Cl)c2Cl)cc2c1C(N1CCN3C(=O)CC[C@@H]3C1)CC2` (some centres unmarked) [Compound A-118] the same measures were 10 to 100 nM and ≤ 10 nM.
The corresponding values for `COc1nc(-c2cccc(-c3cccc(NC(=O)c4cn(C)c(=O)n(C)c4=O)c3Cl)c2Cl)cc2c1C(N1CCC3(CN(C(=O)OC(C)(C)C)C3)C1)CC2` (centres unmarked) [Compound A-119] are 100 to 1000 nM and ≤ 10 nM.
For `COc1nc(-c2cccc(-c3cccc(NC(=O)c4cn(C)c(=O)n(C)c4=O)c3Cl)c2Cl)cc2c1C(N)C(O)C2` (centres unmarked) [Compound A-120], the 50% effective concentration (EC50) in assay [1] (Homo sapiens, Jurkat, 6 h) lay within 10 to 100 nM. Also, in assay [2], the concentration for half-maximal inhibition (IC50) was ≤ 10 nM.
The compound `COc1nc(-c2cccc(-c3cccc(NC(=O)c4cn(C)c(=O)n(C)c4=O)c3C)c2Cl)cc2c1C(NC[C@@H]1CCC(=O)N1)C(C)C2` (some centres unmarked) [Compound A-121] gave a half-maximal effective concentration (EC50) in assay [1] (Homo sapiens, Jurkat, 6 h) of 10 to 100 nM. Further, the half-inhibitory concentration (IC50) in assay [2] is ≤ 10 nM.
The corresponding values for `COc1nc(-c2cccc(-c3cccc(NC(=O)c4cn(C)c(=O)n(C)c4=O)c3C)c2Cl)cc2c1C(NC[C@@H]1CCC(=O)N1)CC2C` (some centres unmarked) [Compound A-122] are 100 to 1000 nM and ≤ 10 nM.
The compound `COc1nc(-c2cccc(-c3cccc(Nc4ncnc5cccnc45)c3Cl)c2Cl)cc2c1[C@@H](NC[C@@H]1CCC(=O)N1)CC2` [Compound B-2] displayed an EC50 in assay [1] (Homo sapiens, Jurkat, 6 h) of 10 to 100 nM. Also, the IC50 in assay [2] was ≤ 10 nM.
As to `COc1nc(-c2cccc(-c3cccc(Nc4nccc5cccnc45)c3Cl)c2Cl)cc2c1[C@@H](NC[C@@H]1CCC(=O)N1)CC2` [Compound B-3], the EC50 in assay [1] (Homo sapiens, Jurkat, 6 h) lay within 100 to 1000 nM. Besides, in assay [2], the IC50 was ≤ 10 nM.
In assay [1] (Homo sapiens, Jurkat, 6 h), `COc1nc(-c2cccc(-c3cccc(Nc4nccc5nccnc45)c3Cl)c2Cl)cc2c1[C@@H](NC[C@@H]1CCC(=O)N1)CC2` [Compound B-4] yielded an EC50 of 10 to 100 nM. Also, in assay [2], the IC50 is ≤ 10 nM.
Take `COc1nc(-c2cccc(-c3cccc(NC(=O)c4cn(C)c(=O)n(C)c4=O)c3Cl)c2Cl)cc2c1C(N1CC(OC)C1)CC2` [Compound D-1]: in assay [1] (Homo sapiens, Jurkat, 6 h), the EC50 is ≤ 10 nM. In assay [2], the IC50 was ≤ 10 nM.
Take `COc1nc(-c2cccc(-c3cccc(NC(=O)c4cn(C)c(=O)n(C)c4=O)c3Cl)c2Cl)cc2c1C(N1CC(O)C1)CC2` [Compound D-2]: in assay [1] (Homo sapiens, Jurkat, 6 h), the EC50 was ≤ 10 nM. The IC50 in assay [2] is ≤ 10 nM.
`COc1nc(-c2cccc(-c3cccc(NC(=O)c4cn(C)c(=O)n(C)c4=O)c3Cl)c2Cl)cc2c1C(N1CC3(CCNC3=O)C1)CC2` [Compound D-3]: in assay [1] (Homo sapiens, Jurkat, 6 h), the EC50 was ≤ 10 nM. In addition, the IC50 in assay [2] was ≤ 10 nM.
In assay [1] (Homo sapiens, Jurkat, 6 h), `COc1nc(-c2cccc(-c3cccc(NC(=O)c4cn(C)c(=O)n(C)c4=O)c3Cl)c2Cl)cc2c1C(N[C@@H]1COC[C@@H]1O)CC2` (stereo partly drawn) [Compound D-4] gave an EC50 of 10 to 100 nM. The 50% inhibitory concentration (IC50) in assay [2] was ≤ 10 nM.
For `COc1nc(-c2cccc(-c3cccc(NC(=O)c4cn(C)c(=O)n(C)c4=O)c3Cl)c2Cl)cc2c1C(NCCO)CC2` [Compound D-5] the same measures were 10 to 100 nM and ≤ 10 nM.
The corresponding values for `COc1nc(-c2cccc(-c3cccc(NC(=O)c4cn(C)c(=O)n(C)c4=O)c3Cl)c2Cl)cc2c1C(N[C@@H]1CCOC[C@H]1O)CC2` (stereo partly drawn) [Compound D-6] are 10 to 100 nM and ≤ 10 nM.
For `COc1nc(-c2cccc(-c3cccc(NC(=O)c4cn(C)c(=O)n(C)c4=O)c3Cl)c2Cl)cc2c1C(N[C@H]1CCOC[C@H]1O)CC2` (stereo partly drawn) [Compound D-7] the same measures were 10 to 100 nM and ≤ 10 nM.
In assay [1] (Homo sapiens, Jurkat, 6 h), `COc1nc(-c2cccc(-c3cccc(NC(=O)c4cn(C)c(=O)n(C)c4=O)c3C)c2Cl)cc2c1C(NCC(N)=O)CC2` [Compound D-9] yielded an EC50 of 10 to 100 nM. Moreover, the IC50 in assay [2] was ≤ 10 nM.
The corresponding values for `COc1nc(-c2cccc(-c3cccc(NC(=O)c4cn(C)c(=O)n(C)c4=O)c3C)c2Cl)cc2c1C(NC1COC1)CC2` [Compound D-10] are 10 to 100 nM and ≤ 10 nM.
In assay [1] (Homo sapiens, Jurkat, 6 h), `COc1nc(-c2cccc(-c3cccc(NC(=O)c4cn(C)c(=O)n(C)c4=O)c3C)c2Cl)cc2c1C(NC1CC1)CC2` [Compound D-11] yielded an EC50 of 10 to 100 nM. In addition, the IC50 in assay [2] was ≤ 10 nM.
For `COc1nc(-c2cccc(-c3cccc(NC(=O)c4cn(C)c(=O)n(C)c4=O)c3Cl)c2Cl)cc2c1C(N1CC3(CNC(=O)O3)C1)CC2` [Compound D-15] the same measures were 10 to 100 nM and ≤ 10 nM.
The corresponding values for `COc1nc(-c2cccc(-c3cccc(NC(=O)c4cn(C)c(=O)n(C)c4=O)c3Cl)c2Cl)cc2c1C(N1CC3(CCN(C(=O)OC(C)(C)C)C3)C1)CC2` [Compound D-16] are 100 to 1000 nM and 10 to 100 nM.
The corresponding values for `COc1nc(-c2cccc(-c3cccc(NC(=O)c4cn(C)c(=O)n(C)c4=O)c3C)c2C)cc2c1C(N1CC(C)(O)C1)CC2` [Compound D-17] are 10 to 100 nM and ≤ 10 nM.
For `COc1nc(-c2cccc(-c3cccc(NC(=O)c4cn(C)c(=O)n(C)c4=O)c3C)c2C)cc2c1C(N1CC(C)(OC)C1)CC2` [Compound D-18], the EC50 in assay [1] (Homo sapiens, Jurkat, 6 h) fell in the range of 10 to 100 nM. The IC50 in assay [2] was ≤ 10 nM.
For `COc1nc(-c2cccc(-c3cccc(NC(=O)c4cn(C)c(=O)n(C)c4=O)c3C)c2C)cc2c1C(N1C[C@@H](O)[C@@H]1C)CC2` (stereo partly drawn) [Compound D-19] the same measures were 100 to 1000 nM and ≤ 10 nM.
For `CCCCOC(=O)N(C[C@@H]1CCC(=O)N1)[C@H]1CCc2cc(-c3cccc(-c4cccc(NC(=O)c5cn(C)c(=O)n(C)c5=O)c4C)c3Cl)nc(OC)c21` [Compound E-2] the same measures were > 10000 nM and ≤ 10 nM.
With `COc1nc(-c2cccc(-c3cccc(NC(=O)c4cn(C)c(=O)n(C)c4=O)c3Cl)c2Cl)cc2c1C(N1CC3(CCNC3)C1)CC2` (centres unmarked) [Compound G-1], the EC50 in assay [1] (Homo sapiens, Jurkat, 6 h) was in the range of 10 to 100 nM. Further, the IC50 in assay [2] is ≤ 10 nM.
For `COc1nc(-c2cccc(-c3cccc(NC(=O)c4cn(C)c(=O)n(C)c4=O)c3Cl)c2Cl)cc2c1C(N1CC3(CCN(C(C)=O)C3)C1)CC2` (centres unmarked) [Compound H-1] the same measures were ≤ 10 nM and ≤ 10 nM.

By EC50 is commonly meant the midpoint of the concentration-response curve. Low values mean higher potency in that assay, high ones lower potency in that assay. What is called IC50 is the midpoint of a concentration-inhibition curve. A low value points to greater potency in that assay.
